Experimental findings from patent US20050090522A1 (priority 2001, published 2005) are described below.

In this experiment the test system is HIV-1. The experiment is described as follows: HIV-1 single-round infectious luciferase reporter virus (pseudotype) assay in HeLa CD4 CCR5 cells. The format is cell-based. As for the experimental part:
• Virus production—Human embryonic Kidney cell line, 293, propagated in Dulbecco's Modified Eagle Medium (Life Technologies, Gaithersburg, Md.) containing 10% fetal Bovine serum (FBS, Sigma, St. Louis, Mo.). • Virus infection—Human epithelial cell line, HeLa, expressing the HIV-1 receptors CD4 and CCR^5 was propagated in Dulbecco's Modified Eagle Medium (Life Technologies, Gaithersburg, Md.) containing 10% fetal Bovine serum (FBS, Sigma, St. Louis, Mo.) and supplemented with 0.2 mg/mL Geneticin (Life Technologies, Gaithersburg, Md.) and 0.4 mg/mL Zeocin (Invitrogen, Carlsbad, Calif.). […] Transfections were performed using lipofectAMINE PLUS reagent as described by the manufacturer (Life Technologies, Gaithersburg, Md.). Experiment • 1. Compound was added to HeLa CD4 CCR5 cells plated in 96 well plates at a cell density of 5×10^4 cells per well in 100 μl Dulbecco's Modified Eagle Medium containing 10% fetal Bovine serum at a concentration of […]. • 2. 100 μl of single-round infectious reporter virus in Dulbecco's Modified Eagle Medium was then added to the plated cells and compound at an approximate multiplicity of infection (MOI) of 0.01, resulting in a final volume of 200 μl per well and a final compound concentration of <10 μM. • 3. Samples were harvested 72 h after infection. • 4. Viral infection was monitored by measuring luciferase expression from viral DNA in the infected cells using a luciferase reporter gene assay kit (Roche Molecular Biochemicals, Indianapolis, Ind.). Infected cell supernatants were removed and 50 μl of Dulbecco's Modified Eagle Medium (without phenol red) and 50 μl of luciferase assay reagent reconstituted as described by the manufacturer (Roche Molecular Biochemicals, Indianapolis, Ind.) was added per well. Luciferase activity was then quantified by measuring luminescence using a Wallac microbeta scintillation counter. • 5. […] An EC50 provides a method for comparing the antiviral potency of the compounds of this invention. The effective concentration for fifty percent inhibition (EC50) was calculated with the Microsoft Excel Xlfit curve fitting software. For each compound, curves were generated from percent inhibition calculated at 10 different concentrations by using a four paramenter logistic model (model 205). Table 1 is the key for the data in Tables 2-4. Cytoxicity assays were conducted with the same HeLa using methodology well known in the art.
In Table 5, X2, X4 etc. indicates the point of attachment. […] The data at 10 μM was calculated in the following manner:
For compounds tested at concentrations less than 10 μM, the percent inhibition at 10 μM was determined by extrapolation using the XLfit curve fitting feature of the Microsoft Excel spreadsheet software. Curves were obtained from 10 data points (% inhibition determined at 10 concentrations of compound) by using a four parameter logistic model (XLfit model 205: y=A+((B−A)/(I+((C/x)^D))), where, A=minimum y, B=maximum y, C=logEC50, D=slope factor, and x and y are known data values. Extrapolations were performed with the A and B parameters unlocked. […]

Where [1] appears, read: Human immunodeficiency virus 1, HeLa-CD4/CCR5, read-out: EC50 Group from TABLE 1, HeLa CD4 CCR5 cells, single-round infectious luciferase reporter virus.

Read-outs that look alike come from different tables or passages of the source.

The term EC50 denotes the concentration needed to bring the measured effect to its halfway point. As to `COc1cnc(-c2cnc(N(C)C)cn2)c2[nH]cc(C(=O)C(=O)N3CCN(C(=O)c4ccccc4)CC3)c12` [Example 72, 1-(benzoyl)-4-[(4-methoxy-7-(2-dimethylamino-pyrazin-5-yl)-6-azaindol-3-yl)-oxoacetyl]piperazine], the EC50 under setting [1] is under 1000 nM. Consider `COc1cnc(-c2cccc(N)n2)c2[nH]cc(C(=O)C(=O)N3CCN(C(=O)c4ccccc4)CC3)c12` [Example 75, 1-benzoyl-4-[(4-methoxy-7-(2-aminopyridin-6-yl)-6-azaindol-3-yl)-oxoacetyl]piperazine], for which the concentration for a half-maximal effect (EC50) under setting [1] was under 1000 nM. With `COc1cnc(-c2cccc(C)n2)c2[nH]cc(C(=O)C(=O)N3CCN(C(=O)c4ccccc4)CC3)c12` [Example 76, 1-benzoyl-4-[(4-methoxy-7-(2-methyl-pyridin-6-yl)-6-azaindol-3-yl)-oxoacetyl]piperazine], under setting [1], the half-maximal effective concentration (EC50) is under 1000 nM.

On to `COc1cccc(-c2ncc(OC)c3c(C(=O)C(=O)N4CCN(C(=O)c5ccccc5)CC4)c[nH]c23)n1` [Example 77, 1-benzoyl-4-[(4-methoxy-7-(2-methoxy-pyridin-6-yl)-6-azaindol-3-yl)-oxoacetyl]piperazine], for which, under setting [1], the EC50 is under 1000 nM. The same measure, in the same setting: the figure for `CCNc1cnc(-c2ncc(OC)c3c(C(=O)C(=O)N4CCN(C(=O)c5ccccc5)CC4)c[nH]c23)cn1` [Example 79, 1-benzoyl-4-[(4-methoxy-7-(2-ethylamino-pyrazin-5-yl)-6-azaindol-3-yl)-oxoacetyl]piperazine] is under 1000 nM. Regarding `COc1cnc(-c2ccoc2)c2[nH]cc(C(=O)C(=O)N3CCN(C(=O)c4ccccc4)CC3)c12` [Example 81, 1-benzoyl-4-[(4-methoxy-7-(furan-3-yl)-6-azaindol-3-yl)-oxoacetyl]piperazine], the EC50 under setting [1] is under 1000 nM. With `COc1cnc(-c2cccs2)c2[nH]cc(C(=O)C(=O)N3CCN(C(=O)c4ccccc4)CC3)c12` [Example 82, 1-benzoyl-4-[(4-methoxy-7-(thiophen-2-yl)-6-azaindol-3-yl)-oxoacetyl]piperazine], the EC50 under setting [1] is under 1000 nM. Take `COc1cnc(-c2ccsc2)c2[nH]cc(C(=O)C(=O)N3CCN(C(=O)c4ccccc4)CC3)c12` [Example 83, 1benzoyl-4-[(4-methoxy-7-(thiophen-3-yl)-6-azaindol-3-yl)-oxoacetyl]piperazine]: under setting [1], the EC50 was under 1000 nM.

For `COc1cnc(-c2ccc(C=O)s2)c2[nH]cc(C(=O)C(=O)N3CCN(C(=O)c4ccccc4)CC3)c12` [Example 84, 1-benzoyl-4-[(4-methoxy-7-(5-carbonyl-thiophen-2-yl)-6-azaindol-3-yl)-oxoacetyl]piperazine], under setting [1], the EC50 was under 1000 nM. On the same count and under the same terms, the figure for `COc1cnc(-c2ccc(C=O)o2)c2[nH]cc(C(=O)C(=O)N3CCN(C(=O)c4ccccc4)CC3)c12` [Example 85, 1-(benzoyl)-4-[(4-methoxy-7-(5-carbonyl-furan-2-yl)-6-azaindol-3-yl)-oxoacetyl]piperazine] is under 1000 nM. Turning to `Cc1csc(-c2ccnc3c(C(=O)C(=O)N4CCN(C(=O)c5ccccc5)C[C@H]4C)c[nH]c23)c1` [Example 86, 1-benzoyl-3-(R)-methyl-4-[(7-(4-methyl-thiophen-2-yl)-4-azaindol-3-yl)-oxoacetyl]piperazine], the EC50 (Human immunodeficiency virus 1, HeLa-CD4/CCR5, read-out: EC50 Group from Table 1, Table 4, HeLa CD4 CCR5 cells, single-round luciferase reporter virus) is under 1000 nM. Turning to `COc1cnc(-c2ccc(C(=O)O)o2)c2[nH]cc(C(=O)C(=O)N3CCN(C(=O)c4ccccc4)CC3)c12` [Example 87, 1-benzoyl-4-[(4-methoxy-7-(2-hydroxycarbonyl-furan-5-yl)-6-azaindol-3-yl)-oxoacetyl]piperazine], the EC50 under setting [1] was under 1000 nM. Same read-out and setting: the figure for `CCc1ncc(-c2ncc(OC)c3c(C(=O)C(=O)N4CCN(C(=O)c5ccccc5)CC4)c[nH]c23)s1` [Example 88, 1-benzoyl-4-[(4-methoxy-7-(2-ethyl-thiazol-5-yl)-6-azaindol-3-yl)-oxoacetyl]piperazine] is under 1000 nM; for `CC(C)Cc1ncc(-c2nccc3c(C(=O)C(=O)N4CCN(C(=O)c5ccccc5)CC4)c[nH]c23)s1` [Example 89, 1-benzoyl-4-[(7-(2-isobutyl-thiazol-5-yl)-6-azaindol-3-yl)-oxoacetyl]piperazine] it is under 1000 nM.
